The subject of one experiment is S. pneumoniae. Briefly: Kill or inhibit growth/proliferation; morphology, biofilm and growth disruption (Tables 5, 6). Note: test concentration or dose not given here. In kind it is cell-based, Streptococcus pneumoniae. Also noted: key: A: Peptide aggregates; B: Less hyphal formation; Clumps; Diffuse clumps and small polyps; F: Diffuse growth; H: Thin; I: Growth inhibition; Microcolony formation; Rippled; Small polyps; Thick; W: Halo formation on top, microlonies on bottom.

The subject of a further experiment is C. jejuni. The description is as above. Format: cell-based, Campylobacter jejuni. Also noted: key: A: Peptide aggregates; B: Less hyphal formation; Clumps; Diffuse clumps and small polyps; F: Diffuse growth; H: Thin; I: Growth inhibition; Microcolony formation; Rippled; Small polyps; Thick; W: Halo formation on top, microlonies on bottom.
For a further experiment, the system named is C. jeikeium. The description is as above. In kind it is cell-based, Corynebacterium jeikeium. Set-up: key: A: Peptide aggregates; B: Less hyphal formation; Clumps; Diffuse clumps and small polyps; F: Diffuse growth; H: Thin; I: Growth inhibition; Microcolony formation; Rippled; Small polyps; Thick; W: Halo formation on top, microlonies on bottom. Note: test concentration or dose not given here.
In another experiment the test system is microorganisms. Briefly: Peptides having multiple activities (targeting/binding, antimicrobial, growth or phenotype altering). From the text:
In certain embodiments, peptides described herein can have multiple activities. Thus for example, a peptide can have both binding/targeting activity and antimicrobial activity. Such peptides can be used, e.g., in a chimeric construct, for any or all of these properties. Thus, for example, a peptide designated “B” in Table 8 can be used as a targeting peptide. If it is also designated G or M it can also be used for antimicrobial activity.

Experiment [1] concerns microorganisms (e.g., bacteria, yeasts, fungi). Briefly: Targeting peptide binding to target microorganisms (Table 3). Conditions: microorganism(s) the targeting peptide binds, preferably 1x PBS.
For another experiment, the system named is P. aeruginosa. Briefly: Kill or inhibit growth/proliferation; morphology, biofilm and growth disruption (Tables 5, 6). Note: test concentration or dose not given here. Format: cell-based, Pseudomonas aeruginosa. Set-up: key: A: Peptide aggregates; B: Less hyphal formation; Clumps; Diffuse clumps and small polyps; F: Diffuse growth; H: Thin; I: Growth inhibition; Microcolony formation; Rippled; Small polyps; Thick; W: Halo formation on top, microlonies on bottom.

In another experiment the test system is M. luteus. The experiment is described as above. Format: cell-based, Micrococcus luteus. Set-up: key: A: Peptide aggregates; B: Less hyphal formation; Clumps; Diffuse clumps and small polyps; F: Diffuse growth; H: Thin; I: Growth inhibition; Microcolony formation; Rippled; Small polyps; Thick; W: Halo formation on top, microlonies on bottom.
The subject of a further experiment is S. epidermidis. The experiment is described as above. In kind it is cell-based, Staphylococcus epidermidis. Also noted: key: A: Peptide aggregates; B: Less hyphal formation; Clumps; Diffuse clumps and small polyps; F: Diffuse growth; H: Thin; I: Growth inhibition; Microcolony formation; Rippled; Small polyps; Thick; W: Halo formation on top, microlonies on bottom.

In the next experiment the test system is MRSA. The experiment is described as above. Format: cell-based, Methicillin-resistant Staphylococcus aureus. Set-up: key: A: Peptide aggregates; B: Less hyphal formation; Clumps; Diffuse clumps and small polyps; F: Diffuse growth; H: Thin; I: Growth inhibition; Microcolony formation; Rippled; Small polyps; Thick; W: Halo formation on top, microlonies on bottom.

In the next experiment the test system is B. subtilis. The experiment is described as above. Set-up: key: A: Peptide aggregates; B: Less hyphal formation; Clumps; Diffuse clumps and small polyps; F: Diffuse growth; H: Thin; I: Growth inhibition; Microcolony formation; Rippled; Small polyps; Thick; W: Halo formation on top, microlonies on bottom. Format: cell-based, Bacillus subtilis. Note: test concentration or dose not given here.
The test system of the next experiment is C. albicans. The experiment is described as above. Also noted: key: A: Peptide aggregates; B: Less hyphal formation; Clumps; Diffuse clumps and small polyps; F: Diffuse growth; H: Thin; I: Growth inhibition; Microcolony formation; Rippled; Small polyps; Thick; W: Halo formation on top, microlonies on bottom. Format: cell-based, Candida albicans.
In the next experiment the test system is E. faecalis. The experiment is described as above. Format: cell-based, Enterococcus faecalis. Also noted: key: A: Peptide aggregates; B: Less hyphal formation; Clumps; Diffuse clumps and small polyps; F: Diffuse growth; H: Thin; I: Growth inhibition; Microcolony formation; Rippled; Small polyps; Thick; W: Halo formation on top, microlonies on bottom. Note: test concentration or dose not given here.
A further experiment deals with E. coli. The description is as above. Format: cell-based, Escherichia coli. Set-up: key: A: Peptide aggregates; B: Less hyphal formation; Clumps; Diffuse clumps and small polyps; F: Diffuse growth; H: Thin; I: Growth inhibition; Microcolony formation; Rippled; Small polyps; Thick; W: Halo formation on top, microlonies on bottom.
The mark [2] stands for this setting: peptide binding conducted in aqueous buffers varied by peptide solubility.

“Also recorded” adds a separate entry of the source.
Throughout, for Organism, effect: test concentration or dose not given here.

For the substance LNFRAENKILEKIHISLIDTVEGSA [PF-575], the “Organism, effect” value is on record as “S. pneumoniae (A)” in the experiment with S. pneumoniae, “C. jejuni (R)” with C. jejuni, “C. jeikeium (A)” in the experiment on C. jeikeium and “P. aeruginosa (A)” in the experiment with P. aeruginosa. Also, in the experiment with microorganisms, the Activities result is reported as “G B”. Besides, in experiment [1] (setting [2]), the “Target(s)” value is “M. luteus and E. coli and C. albicans and MRSA and S. pneumoniae and E. faecalis and C. jeikeium”.

Consider “PF-063: peptide having multiple activities (chain 1 IAAIIVLVLFQKGLLQIFNWILIQLQ; chain 2 IAAIIVLVLFQKGLLQIFNWILIQLQ; Peptide with targeting and/or antimicrobial activity)”, for which the “Organism, effect” value in the experiment on S. pneumoniae is reported as “S. pneumoniae (D)”; in the experiment on M. luteus it was “M. luteus (R)”; in the experiment with C. jejuni, “C. jejuni (D)”; in the experiment with S. epidermidis it was “S. epidermidis (R)”; in the experiment with C. jeikeium it was “C. jeikeium (D)”; with MRSA, “MRSA (M)”. Further, the “Organism, effect” value in the experiment with B. subtilis is “B. subtilis (C)”; with P. aeruginosa, “P. aeruginosa (A)”. For the same substance, the Activities result in the experiment with microorganisms is recorded as “G B”.

In the case of “PF-067: peptide having multiple activities (DLIVKVHICFVVKTASGYCYLNKREAQAAI; Peptide with targeting and/or antimicrobial activity)”, the “Organism, effect” value in the experiment on S. pneumoniae is given as “S. pneumoniae (D)”; with M. luteus, “M. luteus (R)”; in the experiment with C. jejuni, “C. jejuni (D)”; with S. epidermidis, “S. epidermidis (D)”; with C. jeikeium, “C. jeikeium (D)”; in the experiment with MRSA it was “MRSA (M)”. For the same substance, the “Organism, effect” value in the experiment on B. subtilis was “B. subtilis (C)”; in the experiment with P. aeruginosa it was “P. aeruginosa (A)”. Besides, the Activities entry in the experiment on microorganisms was “G B”.

As for “PF-140: peptide having multiple activities (FHRRVIRASEWALTTRSFSTPLRSAAR; Peptide with targeting and/or antimicrobial activity)”, the “Organism, effect” value in the experiment with S. pneumoniae was “S. pneumoniae (D)”; in the experiment with C. albicans it was “C. albicans (B)”; in the experiment with M. luteus, “M. luteus (R)”; in the experiment on C. jejuni, “C. jejuni (D)”; in the experiment with S. epidermidis it was “S. epidermidis (D)”; in the experiment on C. jeikeium, “C. jeikeium (D)”. Besides, the figures for the “Organism, effect” value with MRSA and in the experiment with P. aeruginosa were “MRSA (M)” and “P. aeruginosa (A)”, respectively. Besides, the Activities entry with microorganisms is “G B”.

For “PF-204: peptide having multiple activities (ALQKQDMNLPSVKNQLVFLKSTG; Peptide with targeting and/or antimicrobial activity)”, the “Organism, effect” value with M. luteus is “M. luteus (C)”; with S. epidermidis, “S. epidermidis (C)”; with C. jeikeium it was “C. jeikeium (D)”; with P. aeruginosa it was “P. aeruginosa (H)”. The Activities entry in the experiment with microorganisms is recorded as “G B”. In addition, the “Target(s)” value in [1] (binding in aqueous buffers depending on peptide solubility) is reported as “S. epidermidis; also recorded: P. mirabilis; also recorded: E. coli; also recorded: P. aeruginosa; also recorded: C. albicans; also recorded: C. jejuni”.

“PF-425: peptide having multiple activities (MMELVLKTIIGPIVVGVVLRIVDKWLNKDK; Peptide with targeting and/or antimicrobial activity)”: the “Organism, effect” value with S. pneumoniae was “S. pneumoniae (D)”; in the experiment with C. albicans, “C. albicans (A)”; in the experiment on C. jejuni, “C. jejuni (D)”; in the experiment on S. epidermidis, “S. epidermidis (D)”; with MRSA, “MRSA (D)”; in the experiment with E. faecalis, “E. faecalis (D)”. The “Organism, effect” value in the experiment with E. coli is on record as “E. coli (C)”; in the experiment on P. aeruginosa it was “P. aeruginosa (A)”. In the experiment on microorganisms, the Activities result is listed as “G B”. The “Target(s)” value in experiment [1] (setting [2]) was “S. epidermidis and M. luteus and E. coli and P. aeruginosa and C. albicans and MRSA and S. pneumoniae and C. jeikeium”.

Turning to “PF-432: peptide having multiple activities (FNGDSEFFLCIAF; Peptide with targeting and/or antimicrobial activity)”, the “Organism, effect” value in the experiment with S. pneumoniae is listed as “S. pneumoniae (D)”; with C. jejuni, “C. jejuni (D)”; in the experiment with S. epidermidis, “S. epidermidis (M)”; with MRSA, “MRSA (M)”; with E. faecalis it was “E. faecalis (D)”; in the experiment with E. coli it was “E. coli (R)”. For the same substance, in the experiment on P. aeruginosa, the “Organism, effect” value is “P. aeruginosa (A)”. For the same substance, the Activities entry with microorganisms is on record as “G B”.

Consider “PF-474: peptide having multiple activities (chain 1 MHRNLVLVKMEPIPHIMIIANQIGIIIEKA; chain 2 MHRNLVLVKMEPIPHIMIIANQIGIIIEKA; Peptide with targeting and/or antimicrobial activity)”, for which the “Organism, effect” value with S. pneumoniae is recorded as “S. pneumoniae (D)”; in the experiment on C. albicans it was “C. albicans (B)”; in the experiment on C. jejuni, “C. jejuni (D)”; with S. epidermidis, “S. epidermidis (C)”; in the experiment on MRSA it was “MRSA (D)”; with E. faecalis it was “E. faecalis (C)”. For the same substance, the “Organism, effect” value is given as “E. coli (C)” in the experiment on E. coli and “P. aeruginosa (A)” in the experiment with P. aeruginosa. Besides, the Activities result in the experiment on microorganisms was “G B”.

Regarding “PF-577: peptide having multiple activities (chain 1 PFETRESFRVPVIGILGGWDYFMHP; chain 2 PFETRESFRVPVIGILGGWDYFMHP; Peptide with targeting and/or antimicrobial activity)”, the “Organism, effect” value with S. pneumoniae is “S. pneumoniae (R)”; with C. jejuni, “C. jejuni (R)”; in the experiment with S. epidermidis, “S. epidermidis (A)”; with MRSA, “MRSA (M)”; in the experiment on E. faecalis, “E. faecalis (A)”; in the experiment with E. coli, “E. coli (A)”. For the same substance, the “Organism, effect” value with P. aeruginosa is on record as “P. aeruginosa (A)”. Besides, the Activities result in the experiment with microorganisms is recorded as “G B”.

Regarding “PF-605: peptide having multiple activities (HYRWNTQWWKY; Peptide with targeting and/or antimicrobial activity)”, the “Organism, effect” value in the experiment with S. pneumoniae is reported as “S. pneumoniae (D)”; in the experiment with C. albicans it was “C. albicans (B)”; in the experiment with C. jejuni it was “C. jejuni (R)”; in the experiment on S. epidermidis it was “S. epidermidis (R)”; with MRSA it was “MRSA (C)”; in the experiment with E. faecalis, “E. faecalis (R)”. The “Organism, effect” value with E. coli was “E. coli (C)”; with P. aeruginosa, “P. aeruginosa (A)”. The Activities result in the experiment with microorganisms is listed as “G B”.
